Results published in patent publication US10213438B2, “Alkaloid compounds for treating depression, substance addictions, and indications associated with chronic inflammation” (MyMD Pharmaceuticals, Inc., priority 2014, dated 2019).

Key:
RAW macrophage cells = test: assay of cell viability in RAW macrophage cells; format: cell-based, mouse; settings: RAW 264.7 cells, FIG. 1
Protocol: (§1) This example illustrates in vitro studies of 2-(pyridin-3-yl)-2,3,4,7-tetrahydro-1H-azepine. For these experiments, the mouse macrophage cell line RAW 264.7 was used (referred to herein as RAW). The design of the experiments is the following:
Before testing the anti-inflammatory effect(s) of 2-(pyridin-3-yl)-2,3,4,7-tetrahydro-1H-azepine, an assay of cell viability was performed. […] Toxicity was only seen at higher doses (3 mM and above).

iNOS = test: LPS-stimulated RAW cells, protein blot for iNOS expression; format: cell-based, mouse
Protocol: as §1
(§2) RAW cells were plated in complete medium overnight. The following day, a known inflammatory stimulus (bacterial LPS) was added to the culture wells. Following a 15 minute stimulation, 2-(pyridin-3-yl)-2,3,4,7-tetrahydro-1H-azepine (7-MR) was added to the culture at different concentrations. Twenty-four hours later, RAW cells were harvested and their proteins extracted. Proteins were then run on a polyacrylamide gels and transferred to a nitrocellulose membrane. The membrane was finally probed with commercial antibodies against some classic inflammatory markers.
(§3) The following three inflammatory markers were tested:
iNOS (SantaCruz Biotechnology, sc-650)

COX-2 = test: LPS-stimulated RAW cells, protein blot for COX-2 expression; format: cell-based, mouse; settings: LPS stimulation, compound added after 15 minutes, harvest 24 hours later, FIG. 2
Protocol: as §1, §2, §3
COX-2 (antibody made by Cayman Chemical, catalog number 160106)

MAO-A [1] = molecular target: T1, MAO-A (Homo sapiens, UniProt P21397); test: MAO-Glo luminescent assay, MAO-A; format: biochemical; settings: 1 hour at room temperature, FIG. 5
T1 sequence (P21397 1-527): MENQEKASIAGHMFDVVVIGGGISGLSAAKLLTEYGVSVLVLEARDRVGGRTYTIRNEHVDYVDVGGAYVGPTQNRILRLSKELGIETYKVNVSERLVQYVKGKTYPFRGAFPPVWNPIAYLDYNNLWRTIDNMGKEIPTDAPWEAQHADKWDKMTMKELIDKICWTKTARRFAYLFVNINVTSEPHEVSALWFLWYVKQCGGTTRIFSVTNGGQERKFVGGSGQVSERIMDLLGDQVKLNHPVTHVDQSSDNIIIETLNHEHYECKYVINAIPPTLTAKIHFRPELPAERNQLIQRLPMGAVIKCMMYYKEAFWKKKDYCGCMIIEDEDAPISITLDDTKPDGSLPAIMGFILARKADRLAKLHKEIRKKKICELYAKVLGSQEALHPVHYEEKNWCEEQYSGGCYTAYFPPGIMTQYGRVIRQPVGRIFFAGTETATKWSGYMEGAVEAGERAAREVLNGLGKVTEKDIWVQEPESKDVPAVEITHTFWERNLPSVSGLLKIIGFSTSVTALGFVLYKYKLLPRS
Description: This example describes experiments for determining monoamine oxidase (MAO) inhibition for 2-(pyridin-3-yl)-2,3,4,7-tetrahydro-1H-azepine and other alkaloids. MAOs are enzymes located on the outer membrane of mitochondria and are involved in the catabolism of monoamine neurotransmitters. There are two well-characterized isoenzymes: MAO-A, which predominantly catabolizes serotonin and norepinephrine, and MAO-B, which preferentially catabolizes benzylamine and phenylethylamine. Dopamine and tyramine are metabolized by both isoforms.
To detect the activity of MAO, a luminescent method (MAO-Glo Assay kit, from Promega, Cat # V1401) was used. In this method, a MAO substrate (a derivative of beetle luciferin provided in the kit) is mixed with the compound to be tested (in this case, myosmine and control compounds). Then, the MAO enzymes (either A or B, purchased separately) are added to the mixture and incubated with the reaction for 1 hour at room temperature. The MAO enzymes, if not inhibited by the test compound, will convert the substrate into methyl ester luciferin. Finally, a luciferin detection reagent (provided by the kit) is added (20 minutes at room temperature) to stop the MAO reaction and convert methyl ester luciferin into D-luciferin. […] The luminescent signal is measured and recorded using a luminometer. […]

mice = settings: cited from earlier work; for effect on dopamine levels: MPTP
MAO-A [2] = molecular target: T1, MAO-A; settings: cited from earlier work
MAO-B = molecular target: T2, MAO-B (Homo sapiens, UniProt P27338); settings: cited from earlier work
T2 sequence (P27338 1-520): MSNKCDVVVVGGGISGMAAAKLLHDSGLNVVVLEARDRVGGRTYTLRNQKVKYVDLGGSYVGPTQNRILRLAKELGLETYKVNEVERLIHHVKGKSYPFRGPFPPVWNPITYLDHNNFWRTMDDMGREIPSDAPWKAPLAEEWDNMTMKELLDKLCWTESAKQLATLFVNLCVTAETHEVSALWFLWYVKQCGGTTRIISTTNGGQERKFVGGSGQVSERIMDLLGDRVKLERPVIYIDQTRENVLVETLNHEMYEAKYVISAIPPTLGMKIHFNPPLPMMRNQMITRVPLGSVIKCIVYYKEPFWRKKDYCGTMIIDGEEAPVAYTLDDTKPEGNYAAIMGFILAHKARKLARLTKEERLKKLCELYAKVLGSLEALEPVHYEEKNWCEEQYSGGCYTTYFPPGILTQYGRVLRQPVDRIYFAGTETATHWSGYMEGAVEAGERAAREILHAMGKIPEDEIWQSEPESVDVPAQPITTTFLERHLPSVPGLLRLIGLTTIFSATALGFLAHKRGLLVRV

SMILES	effect on dopamine levels (mice)	decrease in dopamine metabolite levels induced by MPTP (mice)	MAO inhibitory effects against MAO-A (MAO-A [2])	MAO inhibitory effects against MAO-B (MAO-B)	also measured
C1=CCNC(c2cccnc2)CC1 (stereo not shown) [2-(pyridin-3-yl)-2,3,4,7-tetrahydro-1H-azepine]	–	–	–	–	concentration not toxic to RAW macrophage cells (cell viability) (RAW macrophage cells): up to 2 mM; concentration at which toxicity was seen (cell viability) (RAW macrophage cells; higher doses): ≥ 3 mM; expression of iNOS (iNOS; LPS stimulation, compound added after 15 minutes, harvest 24 hours later, FIGS. 2 and 3): decreased significantly; suppression of iNOS expression, separate experiments (iNOS; confirmation in separate experiments, FIG. 4): specifically suppressed iNOS; expression of COX2 (COX-2): slightly; inhibition of MAO-A (activity curve) (MAO-A [1]): found to inhibit MAO-A
c1ccc(-c2ccncc2)cc1 [4-phenylpyridine]	no significant effect	prevented the decrease	–	–	–
c1cncc([C@@H]2CCCCN2)c1 [anabasine]	–	–	exhibited MAO inhibitory effects	exhibited MAO inhibitory effects	–
C1=CCC(c2cccnc2)NC1 (stereo not shown) [anatabine]	–	–	exhibited MAO inhibitory effects	exhibited MAO inhibitory effects	–
CN1CCCC1c1cccnc1 (stereo not shown) [nicotine]	no significant effect	prevented the decrease	–	–	–
c1cncc([C@@H]2CCCN2)c1 [nornicotine]	–	–	exhibited MAO inhibitory effects	exhibited MAO inhibitory effects	–
